According to patent US20240208954A1, “OXADIAZOLE COMPOUND, PREPARATION METHOD THEREFOR, PHARMACEUTICAL COMPOSITION AND USE THEREOF” (SHANGHAI INSTITUTE OF MATERIA MEDICA, CHINESE ACADEMY OF …, priority 2020, published 2024):
Several values for one entry are separate records, joined by “and”; a condition that tells them apart may be missing. Identical values can stand only once. Like-named read-outs stand apart in the source and are kept apart here.

Test: Preliminary assessment of in vivo pharmacokinetics in rats
Settings: for MRT inf: read-out: MRT0-∞
[1] = rat, plasma, iv, 2 mg/kg, rats, intravenous 2 mg/kg, individual animals 1-3
[2] = rat, plasma, iv, 2 mg/kg, rats, intravenous 2 mg/kg, mean
[3] = rat, plasma, oral, 20 mg/kg, intragastric 20 mg/kg, individual animals 4-6, read-out: Plasma drug concentrations in rats
[4] = rat, plasma, oral, 20 mg/kg, intragastric 20 mg/kg, mean, read-out: Plasma drug concentrations in rats
[5] = rat, plasma, po, 20 mg/kg, rats, intragastric 20 mg/kg, individual animals 4-6
[6] = rat, plasma, po, 20 mg/kg, rats, intragastric 20 mg/kg, mean
[7] = rats, intragastric 20 mg/kg, individual animals 4-6, listed as DC411151
[8] = rats, intravenous 2 mg/kg, individual animals 1-3, listed as DC411151, 2 mg/kg

In the case of `CC(C)Oc1ccc(-c2nc(-c3ccc(CN4CC(C(=O)O)C4)c4ccccc34)no2)cc1C#N.Cl` [Compound A1, 1-((4-(5-(3-cyano-4-isopropoxyphenyl)-1,2,4-oxadiazol-3-yl)naphthalen-1-yl)methyl) azetidine-3-carboxylic acid hydrochloric acid], the clearance [1] is reported as 9.34 mL/min/kg, the AUC0-t (rat, plasma, iv, 2 mg/kg, rats, intravenous 2 mg/kg, individual animals 1-3, read-out: AUC0-t) is reported as 3550 ng·h/mL and the MRT inf [1] is reported as 1.2 h. It also gave a Vd (rat, plasma, iv, 2 mg/kg, rats, intravenous 2 mg/kg, individual animals 1-3, read-out: Vss) of 0.672 L/kg, an AUC(0-inf) [2] of 3860 ng·h/mL and an AUC0-t (rat, plasma, iv, 2 mg/kg, rats, intravenous 2 mg/kg, mean, read-out: AUC0-t) of 3850 ng·h/mL. The MRT inf [2] was 1.47 h, the concentration at 0.25 h (rat, plasma, oral, 20 mg/kg, intragastric 20 mg/kg, 0.25 h, mean, read-out: Plasma drug concentrations in rats) was 1270 ng/mL and the concentration at 0.5 h [3] was 3130 ng/mL. The concentration at 0.5 h [4] was 2430 ng/mL, the concentration at 1 h [3] was 2560 ng/mL and the concentration at 1 h [4] was 2570 ng/mL. For the same molecule, the concentration at 2 h [3] was 2290 ng/mL, the concentration at 2 h [4] was 1890 ng/mL and the concentration at 4 h [3] was 884 ng/mL. The concentration at 4 h [4] was 787 ng/mL, the concentration at 6 h [3] was 322 ng/mL and the concentration at 6 h [4] was 320 ng/mL. For the same molecule, the concentration at 8 h [3] was 65.1 ng/mL, the concentration at 8 h [4] was 62 ng/mL and the concentration at 24 h [3] was 4.33 ng/mL. It also gave a concentration at 24 h [4] of 3.25 ng/mL, a bioavailability (rat, plasma, oral, rats, 20 mg/kg by gavage vs 2 mg/kg intravenous, read-out: absolute bioavailability) of 22.8% and a Tmax (rat, plasma, po, 20 mg/kg, rats, 20 mg/kg by gavage, range over animals, read-out: peak time Tmax) of 0.5 to 1 h. For the same molecule, the AUC(0-inf) [5] was 9600 ng·h/mL, the half-life [5] was 2.45 h and the AUC0-t (rat, plasma, po, 20 mg/kg, rats, intragastric 20 mg/kg, individual animals 4-6, read-out: AUC0-t) was 9590 ng·h/mL. The Cmax (rat, plasma, po, 20 mg/kg, rats, intragastric 20 mg/kg, individual animals 4-6, read-out: Cmax) was 3070 ng/mL, the MRT inf [5] was 2.55 h and the Tmax (rat, plasma, po, 20 mg/kg, rats, intragastric 20 mg/kg, individual animals 4-6, read-out: Tmax) was 0.5 h. For the same molecule, the AUC(0-inf) [6] was 8790 ng·h/mL, the half-life [6] was 2.49 h and the MRT inf [6] was 2.72 h. The Tmax (rat, plasma, po, 20 mg/kg, rats, intragastric 20 mg/kg, mean, read-out: Tmax) was 0.833 h, the AUC0-t [7] was 10100 ng·h/mL and 6710 ng·h/mL and the “AUC0-∞” value [7] was 10100 ng·h/mL and 6720 ng·h/mL. For the same molecule, the Cmax [7] was 3130 ng/mL and 2070 ng/mL, the “MRT0-∞” value [7] was 2.62 h and 3.00 h and the t1/2 [7] was 2.5 h and 2.51 h. The clearance classification (rats, intravenous 2 mg/kg) was “low clearance drug”, the “plasma clearance as share of rat liver blood flow (about 55 mL/min/kg)” value (rats, intravenous 2 mg/kg) was 15.7% and the AUC0-t [8] was 4030 ng·h/mL and 3960 ng·h/mL. The “AUC0-∞” value [8] was 4040 ng·h/mL and 3980 ng·h/mL, the CL [8] was 8.26 mL/min/kg and 8.38 mL/min/kg and the “MRT0-∞” value [8] was 1.52 h and 1.69 h. For the same molecule, the Vss [8] was 0.752 L/kg and 0.85 L/kg and the t1/2 [8] was 1.15 h and 3.67 h and 4.3 h.
